# Source: a polymer gas permeability compilation
SMILES,CH4 permeability [Barrer],CO2 permeability [Barrer],H2 permeability [Barrer],N2 permeability [Barrer],O2 permeability [Barrer]
*C(=C(*)c1ccc(-c2ccccc2)cc1)c1ccccc1 (repeat unit),170,1300,440,65,180
*C(=C(*)c1ccc(C(C)(C)C)cc1)c1ccc(O[Si](C)(C)C(C)(C)C)cc1 (repeat unit),540,2300,1000,210,470
*O[Si](*)(C)C (repeat unit),1350,4180,890,351,800
*O[Si](*)(C)CC (repeat unit),474,1510,,160,332
*O[Si](*)(C)CCC (repeat unit),570,2300,,182,394
*O[Si](*)(C)CCCCCCCC (repeat unit),313,932,,88.3,196
*O[Si](*)(C)c1ccccc1 (repeat unit),36,239,,8.59,28.8
*O[Si](C)(C)CC[Si](*)(C)C (repeat unit),597,1880,,,394
*O[Si](C)(C)c1ccc([Si](*)(C)C)cc1 (repeat unit),12,65,,,11
*O[Si](C)(C)c1cccc([Si](*)(C)C)c1 (repeat unit),106,518,,,74
*Oc1c(-c2ccccc2)cc(*)cc1-c1ccccc1 (repeat unit),2.7,39.9,28,1.5,7.7
*Oc1c(Br)cc(C(c2cc(Br)c(OC(=O)c3cccc(C(*)=O)c3)c(Br)c2)(C(F)(F)F)C(F)(F)F)cc1Br (repeat unit),0.597,35.6,65,1.07,6.75
*Oc1c(Br)cc(C2(c3cc(Br)c(OC(=O)c4cccc(C(*)=O)c4)c(Br)c3)OC(=O)c3ccccc32)cc1Br (repeat unit),0.206,8.34,27.1,0.282,1.96
*Oc1c(C)cc(-c2cc(C)c(Oc3ccc(S(=O)(=O)c4ccc(*)cc4)cc3)c(C)c2)cc1C (repeat unit),0.925,18.6,11.1,0.91,4.55
*Oc1c(C)cc(-c2cc(C)c(Oc3ccc(S(=O)(=O)c4ccc(*)cc4)cc3)c(C)c2C)c(C)c1C (repeat unit),0.94,25.5,63,1.2,6
*Oc1c(C)cc(C(C)(C)c2cc(C)c(Oc3ccc(S(=O)(=O)c4ccc(*)cc4)cc3)c(C)c2)cc1C (repeat unit),0.95,21,,1.06,5.6
*Oc1c(C)cc(C(C)(C)c2ccc(C(C)(C)c3cc(C)c(Oc4ccc(S(=O)(=O)c5ccc(*)cc5)cc4)c(C)c3)cc2)cc1C (repeat unit),0.6,13.2,,0.571,3.2
*Oc1cc(C)c(C(c2cc(C(C)C)c(Oc3ccc(S(=O)(=O)c4ccc(*)cc4)cc3)cc2C)c2ccccc2C(=O)O)cc1C(C)C (repeat unit),1.13,25.1,49.6,0.757,4.53
*Oc1cc(C)c(C2(c3cc(C(C)C)c(Oc4ccc(S(=O)(=O)c5ccc(*)cc5)cc4)cc3C)OC(=O)c3ccccc32)cc1C(C)C (repeat unit),0.928,19.4,30.6,0.699,4.85
*Oc1cc2c(cc1O*)C1(CC2(C)C)CC(C)(C)c2cc3c(cc21)Oc1c(C#N)c(*)c(*)c(C#N)c1O3 (repeat unit),298,5090,2280,256,913
*Oc1cc2c(cc1O*)C1(CC2(C)C)CC(C)(C)c2cc3c(cc21)Oc1c(CN)c(*)c(*)c(CN)c1O3 (repeat unit),257,1590,2280,176,752
*Oc1cc2c(cc1O*)C1(CC2(C)C)CC(C)(C)c2cc3c(cc21)Oc1cc2nc4cc5c(cc4nc2cc1O3)C(C)(C)CC51CC(C)(C)c2cc3nc4cc(*)c(*)cc4nc3cc21 (repeat unit),62,1100,860,42,190
*Oc1cc2c(cc1O*)C1(c3cc(C)c(C)cc3-2)c2cc(C)c(C)cc2-c2cc3c(cc21)Oc1c(C#N)c(*)c(*)c(C#N)c1O3 (repeat unit),1100,13100,6700,658,2360
*Oc1ccc(-c2c(-c3ccc(Br)cc3)c(-c3ccc(Br)cc3)c(-c3ccc4c(c3)Oc3c(C#N)c(*)c(*)c(C#N)c3O4)c(-c3ccc(Br)cc3)c2-c2ccc(Br)cc2)cc1O* (repeat unit),102,1430,694,54,203

# Further lines, results first:
CH4 permeability [Barrer],CO2 permeability [Barrer],H2 permeability [Barrer],N2 permeability [Barrer],O2 permeability [Barrer],SMILES
46,530,340,23,82,*C(=C(*)c1ccc(C(C)(C)C)cc1)c1ccc(O)cc1 (repeat unit)
140,800,315,55,140,*C(=C(*)c1ccc(O[Si](C)(C)C(C)(C)C)cc1)c1ccc(F)cc1 (repeat unit)
1.32,4.7,,1.43,7.3,*OC(=O)c1ccc(C(=O)Oc2c(C)cc(C(C)(C)c3cc(C)c(O*)c(C)c3)cc2C)cc1 (repeat unit)
0.17,5.8,,0.23,1.12,*OC(=O)c1ccc(C(=O)Oc2ccc(C(C)(C)c3ccc(O*)c(C)c3)cc2C)cc1 (repeat unit)
0.18,5,,0.15,1.04,*OC(=O)c1ccc(C(=O)Oc2ccc(C3(c4ccc(O*)c(C)c4)OC(=O)c4ccccc43)cc2C)cc1 (repeat unit)
0.47,11.7,,0.41,2.15,*OC(=O)c1ccc(C(=O)Oc2ccc(C3(c4ccc(O*)cc4)OC(=O)c4ccccc43)cc2)cc1 (repeat unit)
9.45,94.5,73,4.3,16,*OC1OC(COC(=O)NC(C)(C)C)C(*)C(OCC)C1OCC (repeat unit)
0.15,3.5,12,0.14,0.735,*OC1OC(OC(C)=O)C(*)C(O)C1OC(C)=O (repeat unit)
0.2,6.56,15.5,0.23,1.46,*OC1OC(OC(C)=O)C(*)C(OC(C)=O)C1OC(C)=O (repeat unit)
0.142,4.93,18.1,0.179,1.29,*Oc1c(Br)cc(C(C)(C)c2cc(Br)c(OC(=O)c3cccc(C(*)=O)c3)c(Br)c2)cc1Br (repeat unit)
3.36,85.1,149,4.47,22.1,*Oc1c(Br)cc(C(c2cc(Br)c(OC(=O)c3cc(C(*)=O)cc(C(C)(C)C)c3)c(Br)c2)(C(F)(F)F)C(F)(F)F)cc1Br (repeat unit)
1.09,30.6,67.4,1.19,7.41,*Oc1c(Br)cc(C2(c3cc(Br)c(OC(=O)c4cc(C(*)=O)cc(C(C)(C)C)c4)c(Br)c3)OC(=O)c3ccccc32)cc1Br (repeat unit)
1.49,21.4,,2.42,7.36,*Oc1c(C)cc(*)c(C(=O)c2ccc(C)cc2)c1C (repeat unit)
0.76,11.4,,1.27,5.04,*Oc1c(C)cc(*)c(C(=O)c2ccc([N+](=O)[O-])cc2)c1C (repeat unit)
0.95,14.3,,1.59,6,*Oc1c(C)cc(*)c(C(=O)c2ccccc2)c1C (repeat unit)
0.89,18.6,32,1.1,5.6,*Oc1c(C)cc(C(C)(C)c2cc(C)c(OC(*)=O)c(C)c2)cc1C (repeat unit)
2.72,45.3,96,2.6,12.7,*Oc1c(C)cc(C(C)(C)c2cc(C)c(OC(=O)c3cc(C(*)=O)cc(C(C)(C)C)c3)c(C)c2)cc1C (repeat unit)
0.151,5.45,23.3,0.219,1.52,*Oc1c(C)cc(C(C)(C)c2cc(C)c(OC(=O)c3cccc(C(*)=O)c3)c(Br)c2)cc1Br (repeat unit)
2.79,71.5,126,4.75,20.9,*Oc1c(C)cc(C(c2cc(C)c(OC(*)=O)c(C)c2)(C(F)(F)F)C(F)(F)F)cc1C (repeat unit)
